These results are taken from PMC4967259 (The American journal on addictions / American Academy of …, 2016).

The term Tmax denotes the time at which the peak concentration occurs.

SMILES strings stand for the structures. Like-named read-outs stand apart in the source and are kept apart here.

The conditions of data set [1]: for elimination half-life: metabolite in plasma after iv cocaine, unaffected by donepezil treatment.
Data set [2] in a line: Cardiovascular response. It counts as in vivo, human.
Data set [3] relates to rodent. The following applies: rodent studies, acute; cited from earlier work.
The subject of data set [4] is rats. The following applies: cited from earlier work.
Data set [5] has as its system rats. The settings on record: cited from earlier work. The source holds these as a separate data set.
Where [6] appears, read: rat model of ischemic heart disease.

With `CN1[C@H]2CC[C@@H]1[C@@H](C(=O)O)[C@@H](OC(=O)c1ccccc1)C2` [Benzoylecgonine, benzoylecgonine], the elimination half-life entry in data set [1] is “approximately six hours”.

On to `COC(=O)[C@H]1[C@@H](OC(=O)c2ccccc2)C[C@@H]2CC[C@H]1N2C` [Cocaine, cocaine], for which the Tmax in data set [1] (human, in vivo, iv, 0.36 mg/kg) was 10 min. Moreover, the “change in systolic blood pressure” value in data set [2] (iv cocaine 0.18 and 0.36 mg/kg, most pronounced over the initial 30 minutes) is “dose-related increases”.

As to `COc1cc2c(cc1OC)C(=O)C(CC1CCN(Cc3ccccc3)CC1)C2` (centres unmarked) [Donepezil, donepezil], the cocaine self-administration entry in data set [3] is “attenuate cocaine self-administration”. Moreover, in data set [4] (setting [6]), the blood pressure result is “without affecting blood pressure” and the heart rate entry is reported as “decreased heart rate”. In addition, the “heart failure and survival” value in data set [4] (rat, following coronary artery ligation) is “prevent heart failure and improve survival”. Further, the “effect on increases in blood pressure” value in data set [2] (oral donepezil 5 mg daily, high-dose cocaine (0.36 mg/kg iv)) was “not affected”. In addition, the “effect on diastolic blood pressure and heart rate after cocaine” value in data set [2] (oral donepezil 5 mg daily, iv cocaine, data not shown) is on record as “unaffected”. The “effect on peak values of blood pressure and heart rate” value in data set [2] (oral donepezil 5 mg daily, iv placebo or cocaine 0.18 and 0.36 mg/kg) is listed as “did not modify peak values”. In addition, in data set [2] (oral donepezil 5 mg daily, low-dose cocaine (0.18 mg/kg iv), p < 0.001), the “effect on drug-induced elevations of systolic blood pressure” value is on record as “attenuated”.

Regarding `COC(=O)[C@@H]1[C@H]2CC[C@@H](C[C@@H]1O)N2C` [Ecgonine Methyl Ester, ecgonine methyl ester], in data set [1], the elimination half-life result is recorded as “approximately five hours”.

Regarding `CNC(=O)Oc1ccc2c(c1)[C@]1(C)CCN(C)[C@@H]1N2C` [physostigmine], the figures for the cocaine-induced lethality result in data set [5] (high doses of physostigmine) and in data set [5] (low doses of physostigmine) were “increased” and “decreased”, respectively.
